Laboratory results as given in patent US6552080B1, “Fungicidal compounds having a fluorovinyl-or fluoropropenyl-oxyphenyloxime moiety and process for the preparation thereof” (Korea Research Institute of Chemical Technology, priority 1999, dated 2003).
Like-named read-outs stand apart in the source and are kept apart here.

How the values were obtained:
[1] = system: Phytophthora infestans; format: in vivo; settings: for TLB (Fungicidal Activities, C.V.): Tomato Late Blight
[2] = system: Puccinia recondita; experiment: Fungicidal activity against Wheat Leaf Rust (WLR) disease; format: in vivo; settings: for WLR (Fungicidal Activities, C.V.): Wheat Leaf Rust
[3] = system: Pyricularia oryzae Carvara KA301; format: in vivo; settings: for RCV (Fungicidal Activities, C.V.): Rice Blast
[4] = system: Rhizoctonia solani AG-1; experiment: Fungicidal activity against Rice Sheath Blight (RSB) disease; settings: for RSB (Fungicidal Activities, C.V.): Rice Sheath Blight
[5] = system: Botrytis cinerae; experiment: Fungicidal activity against Cucumber Gray Mold Rot (CGM) disease; format: in vivo; settings: for CGM (Fungicidal Activities, C.V.): Cucumber Gray Mold Rot, concentration 50 ppm; for Fungicidal Activities CGM (C.V.): 50 ppm
[6] = system: Erysiphae graminis; experiment: Fungicidal activity against Barley Powdery Mildew (BPM) disease; format: in vivo; settings: for BPM (Fungicidal Activities, C.V.): Barley Powdery Mildew

SMILES | TLB (Fungicidal Activities, C.V.) ([1]; concentration 50 ppm) | WLR (Fungicidal Activities, C.V.) ([2]; concentration 2 ppm) | WLR (Fungicidal Activities, C.V.) ([2]; concentration 50 ppm) | RCV (Fungicidal Activities, C.V.) ([3]; concentration 50 ppm) | RSB (Fungicidal Activities, C.V.) ([4]; concentration 50 ppm) | CGM (Fungicidal Activities, C.V.) [5] | BPM (Fungicidal Activities, C.V.) ([6]; concentration 2 ppm) | BPM (Fungicidal Activities, C.V.) ([6]; concentration 50 ppm) | Fungicidal Activities TLB (C.V.) ([1]; 50 ppm) | Fungicidal Activities WLR (C.V.) ([2]; 2 ppm) | Fungicidal Activities WLR (C.V.) ([2]; 50 ppm) | Fungicidal Activities RCV (C.V.) ([3]; 2 ppm) | Fungicidal Activities RCV (C.V.) ([3]; 50 ppm) | Fungicidal Activities RSB (C.V.) ([4]; 2 ppm) | Fungicidal Activities RSB (C.V.) ([4]; 50 ppm) | Fungicidal Activities CGM (C.V.) [5] | Fungicidal Activities BPM (C.V.) ([6]; 2 ppm) | Fungicidal Activities BPM (C.V.) ([6]; 50 ppm) | further results
COC=C(C(=O)OC)c1ccccc1CON=Cc1cccc(OC(F)=C(c2ccc(F)cc2)C(F)(F)F)c1 [Compound 113] | 21% | 86% | 100% | 0% | 20% | 0% | 86% | 100% |  |  |  |  |  |  |  |  |  |  | WLR (Fungicidal Activities, C.V.) ([2]; concentration 10 ppm): 98%; BPM (Fungicidal Activities, C.V.) ([6]; concentration 10 ppm): 96%
CNC(=O)C(=NOC)c1ccccc1CON=C(C)c1cccc(OC(F)=C(c2ccc(C)c(C)c2)C(F)(F)F)c1 [Compound 193] |  |  |  |  |  |  |  |  | 40% | 98% | 100% | 93% | 96% | 30% | 80% | 75% | 90% | 100% | Fungicidal Activities TLB (C.V.) ([1]; 2 ppm): 12%
COC=C(C(=O)OC)c1ccccc1CON=Cc1cccc(OC(F)=Cc2cc(C)cc(C)c2)c1 [Compound 5] | 28% | 96% | 100% | 41% | 55% | 17% | 98% | 100% |  |  |  |  |  |  |  |  |  |  | WLR (Fungicidal Activities, C.V.) ([2]; concentration 10 ppm): 100%; BPM (Fungicidal Activities, C.V.) ([6]; concentration 10 ppm): 100%
CON=C(C(=O)OC)c1ccccc1CON=Cc1cccc(OC(F)=Cc2ccc3c(c2)OCO3)c1 [Compound 29] | 84% | 96% | 88% | 100% | 35% | 0% | 41% | 80% |  |  |  |  |  |  |  |  |  |  | TLB (Fungicidal Activities, C.V.) ([1]; concentration 2 ppm): 78%; RCV (Fungicidal Activities, C.V.) ([3]; concentration 2 ppm): 93%; RSB (Fungicidal Activities, C.V.) ([4]; concentration 2 ppm): 20%
CON=C(C(=O)OC)c1ccccc1CON=C(C)c1cccc(OC(F)=C(c2ccc(C)c(C)c2)C(F)(F)F)c1 [Compound 176] |  |  |  |  |  |  |  |  | 70% | 60% | 100% | 83% | 86% | 20% | 60% | 12% | 80% | 100% | 
CON=C(C(=O)OC)c1ccccc1CON=C(C)c1cccc(OC(F)=C(c2ccc(F)cc2)C(F)(F)F)c1 [Compound 183] |  |  |  |  |  |  |  |  | 50% | 99% | 100% | 99% | 100% | 20% | 100% | 56% | 100% | 100% | Fungicidal Activities TLB (C.V.) ([1]; 2 ppm): 12%
CCc1ccc(C=C(F)Oc2cccc(C(C)=NOCc3ccccc3C(=COC)C(=O)NC)c2)cc1 [Compound 59] | 0% |  | 73% | 100% | 47% | 0% |  | 91% |  |  |  |  |  |  |  |  |  |  | 
CNC(=O)C(=COC)c1ccccc1CON=C(C)c1cccc(OC(F)=Cc2ccc(Cl)c(C)c2)c1 [Compound 61] | 0% |  | 43% | 91% | 23% | 33% |  | 86% |  |  |  |  |  |  |  |  |  |  | 
CCc1ccc(C(=C(F)Oc2cccc(C(C)=NOCc3ccccc3C(=NOC)C(=O)NC)c2)C(F)(F)F)cc1 [Compound 195] |  |  |  |  |  |  |  |  | 50% | 98% | 100% | 100% | 96% | 25% | 80% | 82% | 99% | 100% | Fungicidal Activities TLB (C.V.) ([1]; 2 ppm): 25%
CNC(=O)C(=NOC)c1ccccc1CON=Cc1cccc(OC(F)=Cc2cccc(OC)c2)c1 [Compound 35] | 0% | 83% | 97% | 100% | 52% | 0% | 0% | 100% |  |  |  |  |  |  |  |  |  |  | RCV (Fungicidal Activities, C.V.) ([3]; concentration 2 ppm): 97%
CON=C(C(=O)OC)c1ccccc1CON=C(C)c1cccc(OC(F)=C(c2ccc3c(c2)OCO3)C(F)(F)F)c1 [Compound 190] |  |  |  |  |  |  |  |  | 0% | 93% | 100% | 66% | 93% | 15% | 65% | 0% | 91% | 100% | Fungicidal Activities TLB (C.V.) ([1]; 2 ppm): 0%
COC=C(C(=O)OC)c1ccccc1CON=C(C)c1cccc(OC(F)=Cc2ccc(F)cc2)c1 [Compound 51] | 97% |  | 100% | 100% | 90% | 52% |  | 100% |  |  |  |  |  |  |  |  |  |  | WLR (Fungicidal Activities, C.V.) ([2]; concentration 10 ppm): 100%; RCV (Fungicidal Activities, C.V.) ([3]; concentration 10 ppm): 99%; RSB (Fungicidal Activities, C.V.) ([4]; concentration 10 ppm): 88%; BPM (Fungicidal Activities, C.V.) ([6]; concentration 10 ppm): 100%
CCc1ccc(C=C(F)Oc2cccc(C=NOCc3ccccc3C(=COC)C(=O)OC)c2)cc1 [Compound 6] | 33% | 98% | 100% | 99% | 75% | 44% | 97% | 100% |  |  |  |  |  |  |  |  |  |  | WLR (Fungicidal Activities, C.V.) ([2]; concentration 10 ppm): 100%; RCV (Fungicidal Activities, C.V.) ([3]; concentration 2 ppm): 8%; RCV (Fungicidal Activities, C.V.) ([3]; concentration 10 ppm): 58%; BPM (Fungicidal Activities, C.V.) ([6]; concentration 10 ppm): 99%
CNC(=O)C(=COC)c1ccccc1CON=C(C)c1cccc(OC(F)=Cc2cc(C)cc(C)c2)c1 [Compound 58] | 0% |  | 98% | 100% | 23% | 8% |  | 98% |  |  |  |  |  |  |  |  |  |  | 
